Test results reported in patent US20240180972A1, “HUMAN PLURIPOTENT STEM CELL-DERIVED SECRETOME AS A BIOLOGIC FOR PREVENTION AND TREATMENT OF NEURODEGENERATIVE AND APOPTOTIC DISEASES” (The Regents of the University of California, priority 2021, published 2024).

Assays:
[1] = system: OCT4, NANOG; assay: Pluripotency marker expression (qRT-PCR) in iPSCs after epigenetic modifiers; format: cell-based, human; conditions: iPSCs treated 3 days: 5 μM Nanomycin A, 10 μM LSD1 inhibitor, 5 μM 5-Azacytidine, 10 μM GSK126
Experimental: Total RNA was extracted using the RNeasy mini kit (Qiagen), and the SuperScript III First-Strand Synthesis System (Invitrogen) was used to synthesize cDNA according to the manufacturer's instructions. Real-time PCR was performed on a Bio-Rad iQ5 real-time PCR machine.
(§1) For the collection of CM, separate cultures of hiPSCs were set up for 3 days with one of the following small molecules: 5 μM Nanomycin A (A8191, Apexbio), 10 μM LSD1 inhibitor (489476, Millipore-Sigma), 5 μM 5-Azacytidine (C832A53, Thomas Scientific), and 10 μM GSK126 (67-905, Tocris). After 3 days of treatment, CM was collected (without the inhibitors) using the same protocol as described above.

[2] = system: ALS-MNPs; assay: Viability (MTT) and apoptosis (Annexin V) of H2O2 exposed ALS-MNPs, incl. epigenetic inhibitors screen; format: cell-based, human
Experimental: […] MNs were cultured in a 96-well plate at a cell density of 2×10^4 and treated with H2O2 and/or CMs for 24 hours before performing the viability assay. A SpectraMax iD3 Multi-Mode Microplate Reader (Molecular Devices) was used for measuring fluorescence intensity (560/590 nm).
The apoptosis assay of fibroblasts was by Annexin V-CF Blue/7-AAD Apoptosis Detection Kit (ab214663, Abcam) according to the manufacturer's protocol. Briefly, cells were detached using 0.05% trypsin and washed twice with PBS. Then, samples were resuspended in 1× annexin-binding buffer and incubated with 5 μL Annexin V-FITC and 5 μL 7-amino-actinomycin D (7AAD) for 15 min at 37° C., avoiding light. Finally, the stained samples were analyzed on a Guava Easycyte Flowcytometer (Millipore-Sigma) at an excitation wavelength of 488 nm and emission filters of 525 and 625 nm. For MNs, the apoptotic assay was conducted on two different markers, FITC-conjugated-annexinV (ab201540) or Cleaved caspase 3 (9669S). For annexinV detection, MNs in 96-well plates were washed twice with PBS. Then, 100 μL Annexin V binding buffer was added with 5 μL Annexin V-FITC for 5 min incubation at 37° C., avoiding light. The stained plate was analyzed on a SpectraMax iD3 Multi-Mode Microplate Reader (490/525 nm). For the Cleaved caspase 3, the immunofluorescence protocol was used.
as §1
Based on the absence of neuroprotective activity in the differentiated progeny of iPSCs, we decided to confirm and mechanistically extrapolate the relationship between the protective effects and pluripotency. […] To follow on the requirement for pluripotency, we employed a screen with inhibitors of pluripotency that modify the epigenetic states of iPSCs. […]

[3] = system: human motor neurons (MNs); assay: MTT viability and Annexin V apoptosis assays of human motor neurons exposed to H2O2; format: cell-based
Experimental: The process of MNP and MN differentiation was as published (61). Briefly, hPSCs were detached by 0.5 mM EDTA and split 1:10 on Matrigel-coated plates (1:50 dilution). After one day, the Essential 8 was changed to neural inducing medium containing neural basal medium (NBM) plus 3 μM CHIR99021 (Tocris), 2 μM LDN-193189 (Tocris) and 3 μM SB431542 (Stemgent). The NBM is composed of DMEM/F12, Neurobasal medium (FisherScientific) at 1:1, N2, B27, 0.1 mM ascorbic acid (Millipore-Sigma), 1× Glutamax and 1× penicillin/streptomycin (all from Invitrogen). The inducing medium was maintained for 5 days and changed every other day. On day 5, the cultured cells were split at 1:6 with Accutase and cultured in NBM containing 3 μM CHIR99021, 2 μM SB431542, 0.1 μM retinoic acid (RA, Stemgent) and 0.5 μM purmorphamine (Pur, Stemgent). […]
[…] A SpectraMax iD3 Multi-Mode Microplate Reader (Molecular Devices) was used for measuring fluorescence intensity (560/590 nm).
The apoptotic assay of fibroblasts was by Annexin V-CF Blue/7-AAD Apoptosis Detection Kit (ab214663, Abcam) according to the manufacturer's protocol. […] Finally, the stained samples were analyzed on a Guava Easycyte Flowcytometer (Millipore-Sigma) at an excitation wavelength of 488 nm and emission wavelengths of 525 and 625 nm. […] The stained plate was analyzed on a SpectraMax iD3 Multi-Mode Microplate Reader (495/525 nm). […]

[4] = system: IMR90 fibroblasts; assay: MTT viability assay of IMR90 fibroblasts (H2O2, hESC-CM, dF-CM); format: cell-based; conditions: 200 μM H2O2
Text: hESC conditioned medium was previously shown to enhance myogenic and neurogenic responses of tissue precursor cells (43, 44), but the effects on cell viability were less studied. We decided to explore a protective role of hESC conditioned medium (hESC-CM) when cells experience oxidative damage, which is physiologically and clinically relevant in a number of human diseases (56, 57). To set up this experimental system, we first performed dose response studies in IMR90 fibroblasts to varying concentrations of H2O2 and of hESC-CM using an MTT assay.
We then tested eight experimental cohorts, e.g., 200 μM H2O2 alone or in combination with 30% hESC-CM or CM from hESC-derived fibroblasts (dF-CM) (43) and controls for the various culture medium formulations (FIG. 1, panel C).
When cells were grown to 70% confluence, they were subcultured at 1/5 dilution for later passaging.
After H2O2 and/or CM or CM-derived factors treatment, the number of viable cells was determined by a resorufin based assay using the commercially available CellTiter-Blue® cell viability assay (G8080, Promega), as per the manufacturer's protocol. MNs were cultured in a 96-well plate at a cell density of 2×10^4 and treated with H2O2 and/or CMs for 24 hours before performing the viability assay. A SpectraMax iD3 Multi-Mode Microplate Reader (Molecular Devices) was used for measuring fluorescence intensity (560/590 nm). […]

[5] = iPSCs treated 3 days with 10 μM GSK126 before CM collection, N=4, P<0.01

Nc1ncn([C@@H]2O[C@H](CO)[C@@H](O)[C@H]2O)c(=O)n1 [5Aza, 5-Azacytidine]
Expression of OCT4 compared to the untreated groups (WTC11 and CS07) [1]: significantly decreased

CC[C@H](C)n1cc(C)c2c(C(=O)NCc3c(C)cc(C)[nH]c3=O)cc(-c3ccc(N4CCNCC4)nc3)cc21 [GSK126]
Effect of treating ALS iPSCs with the epigenetic inhibitor on the neuroprotective activity of their CM ([2]; MNPs exposed to H2O2, pre-treated with CM): significantly reduced the neuroprotective activity | Apoptosis (Annexin V) of H2O2 exposed ALS-MNPs treated with CM of ALS iPSCs without or with inhibitor pre-treatment [2, 5]: 2.65±0.23 | Viability (MTT) of H2O2 exposed ALS-MNPs treated with CM of ALS iPSCs without or with inhibitor pre-treatment [2, 5]: 0.47±0.02 | Expression of OCT4 compared to the untreated groups (WTC11 and CS07) [1]: the decrease was not significant

OO [H2O2]
Viability (MTT) of human MNs with H2O2 alone or co-treated with CM or fraction ([3]; H2O2, 200 μg/ml HBPs, unfractionated CM, N=4): 0.49±0.01 | Motor neuron viability after H2O2 treatment ([3]; human MNs, 200 μM H2O2): below 50% | Cell viability (MTT) after H2O2 treatment [4]: below 50% | Cell viability after H2O2 treatment, normalized to the values at the 0 concentration [4]: below 0.5

C[C@@H]1O[C@@H](CC(=O)O)CC2=C1C(=O)c1c(O)cccc1C2=O [NaA, Nanomycin A]
Expression of OCT4 compared to the untreated groups (WTC11 and CS07) [1]: significantly decreased
